Experimental data reported in US7317014B2, “Bio-active pyrimidine molecules” (Orchid Research Laboratories, Ltd., priority 2002, dated 2008).

Key:
Male Wistar rats = test: Rat carrageenan paw edema test; type: in vivo; conditions: oral
COX-2 = biological target: T1, COX-2 (Homo sapiens, UniProt P35354); test: Human whole blood assay, COX-2 inhibition (PGE2 after LPS); type: cell-based; conditions: Conc. 0.1 μM, 24 h
T1 construct: incubation of human blood with lipopolysaccharide (LPS), which induces COX-2 production in the blood; endogenous in cells; host or cells: fresh human whole blood from male volunteers, LPS-stimulated, aspirin-pretreated
T1 sequence (P35354 18-604): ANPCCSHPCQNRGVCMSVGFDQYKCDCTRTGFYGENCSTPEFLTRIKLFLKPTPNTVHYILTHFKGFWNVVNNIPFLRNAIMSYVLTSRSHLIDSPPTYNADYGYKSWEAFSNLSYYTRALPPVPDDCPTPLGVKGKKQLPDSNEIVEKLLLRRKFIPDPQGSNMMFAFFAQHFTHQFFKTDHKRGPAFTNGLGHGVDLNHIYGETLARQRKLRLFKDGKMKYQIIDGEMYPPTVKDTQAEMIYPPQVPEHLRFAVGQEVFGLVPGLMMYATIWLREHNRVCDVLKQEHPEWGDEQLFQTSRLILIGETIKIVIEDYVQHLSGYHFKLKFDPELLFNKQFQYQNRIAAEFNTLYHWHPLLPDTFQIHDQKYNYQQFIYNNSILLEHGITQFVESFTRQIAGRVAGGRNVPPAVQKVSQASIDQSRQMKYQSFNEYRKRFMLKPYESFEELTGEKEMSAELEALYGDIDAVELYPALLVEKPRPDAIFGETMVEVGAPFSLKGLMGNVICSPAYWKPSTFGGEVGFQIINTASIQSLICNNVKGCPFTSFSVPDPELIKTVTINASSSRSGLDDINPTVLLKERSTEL
Experimental: The COX-2 inhibition activity of the compounds illustrated in the examples was determined by the following method. Human Whole Blood Assay Human whole blood provides a protein and cell rich milieu appropriate for the study of biochemical efficacy of anti-inflammatory compounds such as selective COX-2 inhibitors. […] This is correlating with the observation that COX-2 inhibitors have no effect on prostaglandin E2 (PGE2) production in normal blood. These inhibitors are active only after incubation of human blood with lipopolysaccharide (LPS), which induces COX-2 production in the blood. Method Fresh blood was collected in tubes containing potassium EDTA by vein puncture from male volunteers. The subjects should have no apparent inflammatory conditions and not taken NSAIDs for atleast 7 days prior to blood collection. Blood was treated with aspirin in vitro (10 μg/ml, at time zero) to inactivate COX-1, and then with LPS (10 μg/ml) along with test agents or vehicle. The blood was incubated for 24 h at 37° C., after which the tubes were centrifuged, the plasma was separated and stored at −80° C. (J. Pharmacol. Exp. Ther., 271, 1705, 1994; Proc. Natl. Acad. Sci. USA., 96, 7563, 1999). The plasma was assayed for PGE2 using Cayman ELISA kit as per the procedure outlined by the manufacturer (Cayman Chemicals, Ann Arbor, USA). The plasma was also tested for TNF-α, IL-1β, and IL-6 using appropriate human ELISA kit as per the procedure of manufacturer (Cayman Chemicals, Ann Arbor, USA).

SF-268 = test: DTP human tumor cell line one-dose prescreen, SF-268; type: cell-based; conditions: Concentration (100 μm), CNS SF-268, test/control (T/C)
Experimental: (§1) The current assay utilizes a 384 well plate format and fluorescent staining technologies resulting in greater screening capacity for testing of synthetic samples. Cell Lines The cell lines of the cancer screening panel are grown in RPMI 1640 medium containing 5% fetal bovine serum and 2 mM L-glutamine. For a typical screening experiment, cells are inoculated into 96 well microtiter plates in 100 μL. After cell inoculation, the microtiter plates are incubated at 37° C., 5% CO2, 95% air and 100% relative humidity for 24 h prior to addition of experimental drugs. The cells are plated a densities of 5000 cells/well (MCF7), 1000 cells/well (NCI-H460), and 7500 cells/well (SF-268) to allow for varying doubling time of the cell lines. Each plate contains all three cell lines, a series of dilutions of standard agents, total kill wells and appropriate controls. Plates are incubated under standard conditions for 24 hours prior to addition of experimental compounds or extracts. Addition of Experimental Agents (Pure Compounds) […] Two standard drugs, meaning that their activities against the cell lines are well documented, are tested against each cell line: NSC 19893 (5-FU) and NSC 123127 (Adriamycin). Endpoint Measurement After compound addition, plates are incubated at standard conditions for ?hours, 10 μl/well Alamar Blue is added and the plates are incubated for an additional 4 hours. Fluorescence is measured using an excitation wavelength of 530 nm and an emission wavelength of 590 nm. Calculation of Percent Test Cell Growth/Control (Untreated) Cell Growth (T/C) Calculation of Percent Test Cell Growth/Control (Untreated) Cell Growth (T/C) Percent growth is calculated on a plate-by-plate basis for test wells relative to control wells. Percent Growth is expressed as the ratio of fluorescence of the test well to the average fluorescence of the control wells ×100.

NCI-H460 = test: DTP human tumor cell line one-dose prescreen, NCI-H460; type: cell-based; conditions: Concentration (100 μm), Lung NCI-H460, test/control (T/C)
Experimental: as §1

MCF7 = test: DTP human tumor cell line one-dose prescreen, MCF7; type: cell-based; conditions: Concentration (100 μm), Breast MCF7, test/control (T/C)
Experimental: as §1

IL-6 = IL-6 production from LPS-stimulated human monocytes (ELISA); type: cell-based; conditions: Monocyte; for inhibition at 10 µM: Conc. 10 μM; for inhibition at 1 µM: Conc. 1 μM
Experimental: Interleukin-6(IL-6) This assay determines the effect of test compounds on the production of IL-6 from human monocytes. Compounds are tested for their ability to downregulate the production of IL-6 in activated monocytes. Test compounds were incubated for three, six and twenty four hours with human monocytes. Lipopolysaccharide was used to stimulate the monocytes. The level of Interleukin-6 is quantitated using Enzyme-Linked Immunosorbent assay performed in a 96 well format.

TNF-α = TNF-α production from LPS-stimulated human monocytes (ELISA); type: cell-based; conditions: Monocyte

SMILES | melting point | other results
CS(=O)(=O)c1ccc(-c2nc(C(F)(F)F)nc(NNC(=O)C(F)(F)F)c2-c2ccc(Cl)cc2)cc1 | 307 to 309 °C | –
CS(=O)(=O)c1ccc(-c2nc(C(F)(F)F)nc(N=[N+]=[N-])c2-c2ccc(F)cc2)cc1 | 285 to 288 °C | –
CC(=O)NNc1nc(C(F)(F)F)nc(-c2ccc(C)cc2)c1-c1ccccc1 [Example 32, N′-[6-(4-methylphenyl)-5-phenyl-2-(trifluoromethyl)pyrimidin-4-yl]acetohydrazide] | 147 to 152 °C | inhibition at 10 µM (IL-6): 53.3%
Cc1ccc(-c2nc(C(F)(F)F)nc(NN)c2-c2ccccc2)cc1 [Example 22, 4-hydrazino-6-(4-methylphenyl)-5-phenyl-2-(trifluoromethyl)pyrimidine] | 188 to 191 °C | inhibition at 1 µM (IL-6): 52.3%
NNc1nc(C(F)(F)F)nc(-c2ccc(F)cc2)c1-c1ccccc1 | 175 to 177 °C | –
[N-]=[N+]=Nc1nc(C(F)(F)F)nc(-c2ccccc2)c1-c1ccccc1 | 126 to 128 °C | –
CS(=O)(=O)c1ccc(-c2nc(C(F)(F)F)nc(N=[N+]=[N-])c2-c2ccccc2)cc1 | 172 to 175 °C | –
NNc1nc(C(F)(F)F)nc(-c2ccccc2)c1-c1ccccc1 [Example 21, 4-hydrazino-5,6-diphenyl-2-(trifluoromethyl)pyrimidine] | 182 to 186 °C | inhibition at 1 µM (IL-6): 67.5%
CC(=O)NNc1nc(C(F)(F)F)nc(-c2ccc(S(C)(=O)=O)cc2)c1-c1ccc(Cl)cc1 | 254 to 256 °C | –
CS(=O)(=O)c1ccc(-c2nc(C(F)(F)F)nc(N=[N+]=[N-])c2-c2ccc(Cl)cc2)cc1 | 317 to 320 °C | –
CC(=O)NNc1nc(C(F)(F)F)nc(-c2ccccc2)c1-c1ccccc1 | 113 to 116 °C | –
CS(=O)(=O)c1ccc(-c2nc(C(F)(F)F)nc(NN)c2-c2ccccc2)cc1 [Example 24, 4-hydrazino-6-[4-(methylsulfonyl)phenyl]-5-phenyl-2-(trifluoromethyl)pyrimidine] | 272 to 275 °C | inhibition at 10 µM (IL-6): 66%
CC(=O)NNc1nc(C(F)(F)F)nc(-c2ccc(F)cc2)c1-c1ccccc1 | 149 to 153 °C | –
O=c1nc(Cl)cc(-c2ccccc2)n1-c1ccccc1 | 141 to 143 °C | –
CS(=O)(=O)c1ccc(-c2nc(C(F)(F)F)nc(NN)c2-c2ccc(Cl)cc2)cc1 | 266 to 269 °C | –
CS(=O)(=O)c1ccc(-c2nc(C(F)(F)F)nc(NN)c2-c2ccc(F)cc2)cc1 | 286 to 290 °C | –
CC(=O)NNc1nc(C(F)(F)F)nc(-c2ccc(S(C)(=O)=O)cc2)c1-c1ccccc1 | 265 to 268 °C | –

Now from value to compound, other results behind:

melting point | SMILES | other results
144 to 146 °C | CSc1ccc(-c2c(Cl)nc(Cl)nc2-c2ccc(Cl)cc2)cc1 [Example 13, 2,4-dichloro-6-(4-chlorophenyl)-5-[4-(methylthio)phenyl]pyrimidine] | Rat Paw Edema model % Inhibition (10 mg/kg body weight) (Male Wistar rats): 47.8%; inhibition at 0.1 µM (COX-2): 45.7%
123 to 125 °C | Clc1ccc(-c2c(Cl)nc(Cl)nc2-c2ccccc2)cc1 [Example 10, 5-(4-chlorophenyl)-2,4-dichloro-6-phenylpyrimidine] | Percentage Growth CNS SF-268 (SF-268): 0; Percentage Growth Lung NCI-H460 (NCI-H460): 0; Percentage Growth Breast MCF7 (MCF7): 0
88 to 90 °C | CSc1ccc(-c2c(Cl)nc(Cl)nc2-c2ccccc2)cc1 [Example 12, 2,4-dichloro-5-[4-(methylthio)phenyl]-6-phenylpyrimidine] | Percentage Growth CNS SF-268 (SF-268): 4; Percentage Growth Lung NCI-H460 (NCI-H460): 0; Percentage Growth Breast MCF7 (MCF7): −1
223 to 225 °C | Cc1ccc(-c2nc(Cl)nc(Cl)c2-c2ccc(Cl)cc2)cc1 | –
132 to 134 °C | COc1ccc(-c2c(Cl)nc(Cl)nc2-c2ccccc2)cc1 [Example 11, 2,4-dichloro-5-(4-methoxyphenyl)-6-phenylpyrimidine] | inhibition at 1 µM (TNF-α; Conc. 1 μM): 29.2%; Percentage Growth CNS SF-268 (SF-268): 2; Percentage Growth Lung NCI-H460 (NCI-H460): 0; Percentage Growth Breast MCF7 (MCF7): 5
144 to 146 °C | Clc1nc(Cl)c(-c2ccccc2)c(-c2ccccc2)n1 [Example 7, 2,4-dichloro-5,6-diphenylpyrimidine] | Rat Paw Edema model % Inhibition (10 mg/kg body weight) (Male Wistar rats): 60.9%
105 to 107 °C | FC(F)(F)c1nc(Cl)c(-c2ccccc2)c(-c2ccccc2)n1 [Example 1, 4-chloro-5,6-diphenyl-2-(trifluoromethyl)pyrimidine] | inhibition at 1 µM (IL-6): 62.5%
272 to 274 °C | CSc1ccc(-c2c(NN)nc(Cl)nc2-c2ccccc2)cc1 | –
156 to 159 °C | CS(=O)(=O)c1ccc(-c2nc(C(F)(F)F)nc(Cl)c2-c2ccccc2)cc1 [Example 4, 4-chloro-6-[4-(methylsulfonyl)phenyl]-5-phenyl-2-(trifluoromethyl)pyrimidine] | inhibition at 10 µM (TNF-α; Conc. 10 μM): 55.4%; Percentage Growth CNS SF-268 (SF-268): 3; Percentage Growth Lung NCI-H460 (NCI-H460): 0; Percentage Growth Breast MCF7 (MCF7): 0
129 to 131 °C | Clc1ccc(-c2nc(Cl)nc(Cl)c2-c2ccccc2)cc1 [Example 9, 6-(4-chlorophenyl)-2,4-dichloro-5-phenylpyrimidine] | Rat Paw Edema model % Inhibition (10 mg/kg body weight) (Male Wistar rats): 42.8%; inhibition at 0.1 µM (COX-2): 60.5%; Percentage Growth CNS SF-268 (SF-268): 1; Percentage Growth Lung NCI-H460 (NCI-H460): 0; Percentage Growth Breast MCF7 (MCF7): 1
97 to 100 °C | Cc1ccc(-c2nc(C(F)(F)F)nc(Cl)c2-c2ccccc2)cc1 [Example 2, 4-chloro-6-(4-methylphenyl)-5-phenyl-2-(trifluoromethyl)pyrimidine] | inhibition at 1 µM (IL-6): 62.3%
130 to 132 °C | Cc1ccc(-c2nc(Cl)nc(Cl)c2-c2ccccc2)cc1 [Example 8, 2,4-dichloro-6-(4-methylphenyl)-5-phenylpyrimidine] | Percentage Growth CNS SF-268 (SF-268): 6; Percentage Growth Lung NCI-H460 (NCI-H460): 1; Percentage Growth Breast MCF7 (MCF7): 5
67 to 68 °C | Fc1ccc(-c2nc(C(F)(F)F)nc(Cl)c2-c2ccccc2)cc1 | –
207 to 210 °C | CSc1ccc(-c2c(NN)nc(NN)nc2-c2ccccc2)cc1 | –
